The results in this text go back to patent publication US20200268711A1, “Use Of Carbamate Compound For Reducing Or Treating Developmental Disorders Including Fragile X Syndrome, Angelman Syndrome Or Rett Syndrome” (SK BIOPHARMACEUTICALS CO., LTD., priority 2017, published 2020).

Common to all, as to format: in vivo
The subject of experiment [1] is Fmr1 gene-deficient mouse. Kind of experiment: Audiogenic seizure test in Fmr1 gene-deficient mouse model. To be noted: for Percent seized / Percent survival / Time to seizure occurrence / Time to respiratory arrest: 30 minutes before the test; for Time to seizure occurrence: 135 dB sound, 300 seconds if seizure does not occur; for Time to respiratory arrest: 300 seconds if mouse survives without respiratory arrest; for Median seizure score (seizure intensity level): compared to the vehicle administration group, score 0-5. The procedure:
Male FVB.129P2-Pde6b^+ Tyr^c-ch Fmr1^tm1Cgr/J gene-deficient mice were purchased from Jackson Laboratories, and audiogenic seizure experiments were performed at 3 weeks of age. After purchase, the experimental animals were maintained under a controlled lighting environment (12 hours lighting/12 hours non-lighting) and maintained at a temperature of 20-23° C. and about 50% relative humidity. Food and water were provided ad libitum. Mice were randomly divided into groups. The test was carried out under lighting.
MPEP (2-methyl-6-(phenylethynyl)pyridine) HCl was used as a positive control, dissolved in sterile injectable saline, and administered intraperitoneally at a dose of 30 mg/kg. MPEP was prepared at a volume of 10 ml/kg and administered 30 minutes before the test.
Test Compound was dissolved in 30% PEG 300, and two doses of 10 mg/kg and 20 mg/kg were used, Test Compound was prepared at a volume of 10 ml/kg and administered intraperitoneally 30 minutes before the test. As a negative control, a vehicle (30% PEG 300) was administered.
Vehicle, MPEP or Test Compound was administered to mice of 21 days of age 30 minutes before the test. Mice were placed in a Plexiglas chamber for 15 seconds and exposed to 135 decibels (dB) of sound. During the test for 5 minutes, the mice were scored as following criteria based on the reaction of the mouse, the time required until the reaction and the intensity of the seizure.
1: Wild running and jumping
The following endpoints were measured and observed, and in the case of animals that had no reaction, the time to reaction was set to 300 seconds for convenience in analysis.
2. Time to respiratory arrest (300 seconds if mouse survives without respiratory arrest)
Data were analyzed by ANOVA, and if appropriate, Fisher PLSD post-hoc analysis was performed. The average seizure intensity was analyzed non-parametrically. The effect was defined as significant when p<0.05. Results are represented as mean values ±standard error.

Experiment [2] concerns Fmr1 gene-deficient mouse. Kind of experiment: Fear conditioning test (contextual and cued) in Fmr1 gene-deficient mouse model. As to conditions: day 6; for Freezing during contextual fear conditioning test: in comparison with the vehicle administration group. The procedure: (§1) Male FVB.129P2-Pde6b^+ Tyr^c-ch Fmr1^tm1Cgr/J gene-deficient mice were purchased from Jackson Laboratories. After purchase, the experimental animals were maintained under a controlled lighting environment (12 hours lighting/12 hours non-lighting) and maintained at a temperature of 20-23° C. and about 50% relative humidity. Food and water were provided ad libitum. Mice were randomly divided into groups. The drugs were administered once a day for 6 days at 8 weeks of age. The test was carried out under lighting.
(§2) Test Compound was dissolved in 30% PEG 300, and two doses of 10 mg/kg and 20 mg/kg were used. Test Compound was prepared at a volume of 10 ml/kg and administered intraperitoneally 30 minutes before the test.
2. Fear conditioning test: On day 5 and day 6 of administration, and 30 minutes after administration, training and drug efficacy tests were carried out, respectively. The test was performed using a fear conditioning system manufactured by Coulbourn Instruments (PA, USA).
Training was done 30 minutes after administration on day 5 of administration. The mice were placed in a conditioning chamber and accustomed to the environment for 120 seconds, and then exposed to 6 kHz, 75 dB sound stimulus (conditioned stimulus) for 20 seconds. 30 seconds after the end of the conditioned stimulation, 0.5 mA electrostimulation shock (unconditioned stimulus) was applied to the mouse paws. Mice were left in the conditioning chamber for an additional 60 seconds and then returned to the original cage.
On the morning of day 6, 30 minutes after administration mice were placed in the same chamber as the previous day, and then trained for 5 minutes without shock or other obstructions in order to perform a drug efficacy test for contextual memory. On day 6, after 4 hours of the contextual conditioning test, a drug efficacy test was performed on cued memory by stimulus signals. The mice were exposed to a new environment for 2 minutes (before the stimulation signal), and conditions and stimulation were applied three times in total for 20 seconds. Freezing behavior was defined as the complete loss of movement and was captured using a video system and FreezeView software (Coulbourn Instrument Penn., USA). The chamber was cleaned with 70% ethanol with each mouse change.
The data were analyzed by ANOVA, and if appropriate, Fisher PLSD post-hoc analysis was performed using Statview software. The effect was defined as significant when p<0.05. Results are represented as mean values ±standard error.

The test system of experiment [3] is Fmr1 gene-deficient mouse. The experiment in a line: Open field test (locomotor activity, rearing) in Fmr1 gene-deficient mouse model. As to conditions: 20 mg/kg i.p. once a day, day 4 of administration; 60 minutes; in comparison with the vehicle administration group. The procedure:
as §1, §2
1. Locomotor activity: Locomotor activity test was performed on day 4 of administration in the course of administering daily for 6 days in 8-week-old mice.
A Plexiglas square chamber (27.3×27.3×20.3 cm) surrounded by infrared rays was used to measure the horizontal and vertical movements. Mice were acclimatized to the laboratory for at least 1 hour before the test and then placed in the center of the chamber to measure activity in the open field for 1 hour. […] The distance was measured by the breakage of the horizontal light beam by the movement of the mouse. […]
The data were analyzed by ANOVA, and if appropriate, Fisher PLSD post-hoc analysis was performed using Statview software. […]

Where [4] appears, read: 20 mg/kg i.p. once a day, compared with the vehicle administration group.

Turning to `Cc1cccc(C#Cc2ccccc2)n1` [MPEP, 2-methyl-6-(phenylethynyl)pyridine, reference compound], in experiment [1] (30 mg/kg i.p.), the Percent seized result is “No seizures occurred”, the Percent survival is on record as 100%, the “Time to seizure occurrence” value is 300 s and the “Time to respiratory arrest” value was determined as 300 s. In addition, in experiment [1] (30 mg/kg i.p.), the “Median seizure score (seizure intensity level)” value (from here on “Median seizure score”) is reported as “significantly reduced”.

Consider `NC(=O)O[C@@H](Cn1ncnn1)c1ccccc1Cl` [Test Compound, Carbamic acid (R)-1-(2-chlorophenyl)-2-tetrazol-2-yl-ethyl ester], for which the “Rate of freezing in cue test, while the stimulus signal was given” value in experiment [2] (10 mg/kg i.p. once a day, compared with the vehicle administration group) is recorded as “significantly increased”. Also, the “Freezing during contextual fear conditioning test” value in experiment [2] (10 mg/kg i.p. once a day) is “significantly increased”. Moreover, in experiment [2] (setting [4]), the “Freezing in cue test, after the stimulus signal” value was “significant increase” and the “Rate of freezing in cue test, while the stimulus signal was given” value is “significantly increased”. Further, in experiment [2] (20 mg/kg i.p. once a day), the “Freezing during contextual fear conditioning test” value is recorded as “significantly increased”. Further, in experiment [1] (10 mg/kg i.p.), the Percent seized result was “No seizures occurred”, the Percent survival was 100%, the “Time to seizure occurrence” value worked out at 300 s and the “Time to respiratory arrest” value was determined as 300 s. In addition, in experiment [1] (10 mg/kg i.p.), the “Median seizure score” value is “significantly reduced”. For the same compound, in experiment [1] (20 mg/kg i.p.), the Percent seized result is reported as “No seizures occurred”, the Percent survival was determined as 100%, the “Time to seizure occurrence” value came out at 300 s and the “Time to respiratory arrest” value was found to be 300 s. Besides, the “Median seizure score” value in experiment [1] (20 mg/kg i.p.) is reported as “significantly reduced”. In addition, in experiment [3], the “Locomotor activity (total distance traveled)” value was “significantly decreased” and the Rearing activity entry is listed as “decreased”.
